Data as given in the NIST ThermoML archive (doi:10.1007/s10765-008-0390-4).

Assay: xn = mol fraction of the nth substance listed
Conditions: 101 kPa, Liquid

c1ccccc1 [benzene] + CCCCO
mass density [kg/m3]
Conditions | 288.15 K | 293.15 K | 298.15 K | 303.15 K | 308.15 K | 313.15 K
x2 = 0 | 884.246 | 878.918 | 873.582 | 868.233 | 862.871 | 857.498
x2 = 0.0193 | 882.483 | 877.168 | 871.844 | 866.507 | 861.158 | 855.809
x2 = 0.0534 | 879.595 | 874.309 | 869.007 | 863.694 | 858.36 | 853.019
x2 = 0.1013 | 875.72 | 870.495 | 865.255 | 859.995 | 854.713 | 849.433
x2 = 0.1509 | 871.829 | 866.677 | 861.506 | 856.309 | 851.089 | 845.861
x2 = 0.2016 | 867.984 | 862.908 | 857.807 | 852.685 | 847.536 | 842.375
x2 = 0.2018 | 867.955 | 862.874 | 857.776 | 852.651 | 847.499 | 842.342
x2 = 0.25 | 864.382 | 859.372 | 854.344 | 849.285 | 844.201 | 839.11
x2 = 0.2997 | 860.741 | 855.806 | 850.849 | 845.866 | 840.854 | 835.83
x2 = 0.3532 | 856.936 | 852.081 | 847.201 | 842.294 | 837.357 | 832.4
x2 = 0.4019 | 853.504 | 848.721 | 843.914 | 839.08 | 834.214 | 829.324
x2 = 0.4525 | 850 | 845.3 | 840.574 | 835.817 | 831.029 | 826.217
x2 = 0.4998 | 846.738 | 842.111 | 837.46 | 832.778 | 828.059 | 823.32
x2 = 0.5532 | 843.129 | 838.594 | 834.03 | 829.436 | 824.804 | 820.157
x2 = 0.6004 | 839.985 | 835.529 | 831.042 | 826.525 | 821.974 | 817.402
x2 = 0.6493 | 836.693 | 832.317 | 827.91 | 823.473 | 819.001 | 814.449
x2 = 0.701 | 833.239 | 828.949 | 824.631 | 820.282 | 815.895 | 811.483
x2 = 0.7502 | 829.979 | 825.772 | 821.537 | 817.269 | 812.965 | 808.64
x2 = 0.7945 | 827.051 | 822.92 | 818.759 | 814.569 | 810.343 | 806.094
x2 = 0.8511 | 823.296 | 819.258 | 815.196 | 811.102 | 806.975 | 802.822
x2 = 0.8961 | 820.299 | 816.336 | 812.348 | 808.331 | 804.274 | 800.189
x2 = 0.951 | 816.663 | 812.791 | 808.897 | 804.977 | 801.025 | 797.051

ClC(Cl)Cl [trichloromethane] + CCCCO
mass density [kg/m3]
Conditions | 288.15 K | 293.15 K | 298.15 K | 303.15 K | 308.15 K | 313.15 K
x2 = 0 | 1498.08 | 1488.64 | 1479.15 | 1469.61 | 1460.03 | 1450.41
x2 = 0.0493 | 1458.97 | 1449.82 | 1440.63 | 1431.4 | 1422.12 | 1412.82
x2 = 0.0994 | 1420.12 | 1411.28 | 1402.39 | 1393.45 | 1384.45 | 1375.41
x2 = 0.1499 | 1381.86 | 1373.34 | 1364.77 | 1356.15 | 1347.47 | 1338.76
x2 = 0.2003 | 1344.3 | 1336.11 | 1327.86 | 1319.57 | 1311.21 | 1302.8
x2 = 0.2476 | 1309.65 | 1301.76 | 1293.82 | 1285.82 | 1277.77 | 1269.66
x2 = 0.279 | 1286.97 | 1279.28 | 1271.53 | 1263.75 | 1255.9 | 1248.02
x2 = 0.3474 | 1238.34 | 1231.07 | 1223.75 | 1216.37 | 1208.94 | 1201.48
x2 = 0.4003 | 1201.44 | 1194.48 | 1187.48 | 1180.42 | 1173.31 | 1166.16
x2 = 0.461 | 1159.74 | 1153.14 | 1146.5 | 1139.81 | 1133.06 | 1126.29
x2 = 0.4993 | 1133.81 | 1127.43 | 1121 | 1114.53 | 1108 | 1101.42
x2 = 0.5517 | 1098.6 | 1092.6 | 1086.4 | 1080.3 | 1074 | 1067.8
x2 = 0.5989 | 1067.38 | 1061.55 | 1055.69 | 1049.78 | 1043.81 | 1037.8
x2 = 0.651 | 1033.23 | 1027.7 | 1022.12 | 1016.5 | 1010.82 | 1005.11
x2 = 0.7008 | 1001.03 | 995.76 | 990.45 | 985.097 | 979.698 | 974.26
x2 = 0.7485 | 970.42 | 965.404 | 960.349 | 955.255 | 950.115 | 944.94
x2 = 0.7987 | 938.452 | 933.697 | 928.907 | 924.082 | 919.208 | 914.297
x2 = 0.8495 | 906.492 | 901.999 | 897.472 | 892.91 | 888.303 | 883.67
x2 = 0.8953 | 877.854 | 873.588 | 869.292 | 864.961 | 860.59 | 856.188
x2 = 0.9475 | 845.53 | 841.51 | 837.462 | 833.386 | 829.272 | 825.138
